Assays:
[1] = Plasma octreotide level one hour after intravenous administration (radioimmunoassay); assay type: in vivo, human; settings: 50 μg octreotide IV bolus, 13 patients with cirrhosis and portal hypertension
Excerpt: Furthermore, we also studied the relationship between the mag- nitude and duration of response of octreotide on corrected wedged hepatic venous pressure (WHVP) and the circulatinglevels ofthe analogue after intravenous administration. Subcutaneous Administration of Octreotide Six patients (4 males and 2 females), receiving 50tg octreotide s.c. twice daily to prevent recurrent varieceal hemorrhage were studied 4 weeks after commencing treatment with the analogue. These patients were participating in a randomised controlled trial and had already undergone a baseline measurement of corrected wedged hepatic venous pressure (WHVP) prior to being commenced on octreotide (50 tg.sc.bd). […] One patient had severe (Child's C), 2 moderate (Child's B) and 3 mild (Child's A) liver dys- function. Following an overnight fast, blood samples were removed immediately prior to a subcutaneous injection of 50tg octreotide and then at 2 hourly intervals for the following 12 h. The blood samples were collected in hepari- nised bottles containing Trasylol, centrifuged at 0C, the plasma snap frozen and stored at -20C for subsequent analysis of the octreo- tide levels. […] Thirteen patient with cirrhosis and portal hy- pertension admitted for a thorough investigation of the etiology and severity of their liver disease underwent measurements of their corrected wedged hepatic venous pressure (WHVP). […]

[2] = normal healthy volunteers; cited from earlier work
[3] = Pharmacokinetics of octreotide after subcutaneous injection (plasma radioimmunoassay); settings: for AUC: AUC 2-12 h; for Cmax: 50 μg, Plasma octreotide levels, Peak;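 as to all read-outs here: cirrhotic patients on twice-daily subcutaneous dosing for prevention of recurrent variceal bleeding, sampled four weeks into treatment, octreotide measured in plasma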
Excerpt: Furthermore, we also studied the relationship between the mag- nitude and duration of response of octreotide on corrected wedged hepatic venous pressure (WHVP) and the circulatinglevels ofthe analogue after intravenous administration. Subcutaneous Administration of Octreotide Six patients (4 males and 2 females), receiving 50tg octreotide s.c. twice daily to prevent recurrent varieceal hemorrhage were studied 4 weeks after commencing treatment with the analogue. These patients were participating in a randomised controlled trial and had already undergone a baseline measurement of corrected wedged hepatic venous pressure (WHVP) prior to being commenced on octreotide (50 tg.sc.bd). […] One patient had severe (Child's C), 2 moderate (Child's B) and 3 mild (Child's A) liver dys- function. Following an overnight fast, blood samples were removed immediately prior to a subcutaneous injection of 50tg octreotide and then at 2 hourly intervals for the following 12 h. The blood samples were collected in hepari- nised bottles containing Trasylol, centrifuged at 0C, the plasma snap frozen and stored at -20C for subsequent analysis of the octreo- tide levels. […] Thirteen patient with cirrhosis and portal hy- pertension admitted for a thorough investigation of the etiology and severity of their liver disease underwent measurements of their corrected wedged hepatic venous pressure (WHVP). […] A 7F occlusion ballon Sidewinder catheter (Cordis Corporation, Miami, USA) was guided into a hepatic vein under fluoroscopic control. […] The right femoral artery was cannu- lated with a 7F Cordis cannula via a 8F Cordis introducer.

[4] = Patient 1, Child's grade A, 50 μg s.c.
[5] = Patient 2, Child's grade A, 50 μg s.c.
[6] = Patient 3, Child's grade A, 50 μg s.c.
[7] = Patient 4, Child's grade B, 50 μg s.c.
[8] = Patient 5, Child's grade B, 50 μg s.c.
[9] = Patient 6, Child's grade C, 50 μg s.c.

SMILES: C[C@@H](O)[C@@H]1NC(=O)[C@H](CCCCN)NC(=O)[C@@H](Cc2c[nH]c3ccccc23)NC(=O)[C@H](Cc2ccccc2)NC(=O)[C@@H](NC(=O)[C@H](N)Cc2ccccc2)CSSC[C@@H](C(=O)N[C@H](CO)[C@@H](C)O)NC1=O [octreotide]
- plasma octreotide level 1 h after administration [1]: 1944 pg/mL
- level at 1 h ([1]; human, plasma, 50 ug): 1.94 ± 0.226 ng/mL
- hepatic excretion [2]: 30-40%
- clearance, overall ([3]; 50 μg s.c., six patients, mean ± SD): 3.04 L/h
- Clearance [3, 4]: 4.775 L/h
- K [3, 4]: 0.271 h⁻¹
- Volume of distribution [3, 4]: 17.62 L
- Clearance [3, 5]: 2.892 L/h
- K [3, 5]: 0.251 h⁻¹
- Volume of distribution [3, 5]: 11.51 L
- Clearance [3, 6]: 3.021 L/h
- K [3, 6]: 0.288 h⁻¹
- Volume of distribution [3, 6]: 10.47 L
- Clearance [3, 7]: 2.765 L/h
- K [3, 7]: 0.172 h⁻¹
- Volume of distribution [3, 7]: 16.07 L
- Clearance [3, 8]: 2.704 L/h
- K [3, 8]: 0.172 h⁻¹
- Volume of distribution [3, 8]: 15.77 L
- Clearance [3, 9]: 2.101 L/h
- K [3, 9]: 0.142 h⁻¹
- Volume of distribution [3, 9]: 14.82 L
- Tmax ([3]; both, human, plasma, sc, 50 ug): 2 h
- half-life ([3]; both, human, plasma, sc, 50 ug, circulating (plasma) half life, range, 50 μg octreotide s.c., range over 6 patients with cirrhosis and portal hypertension): 2.4 to 4.79 h
- half-life ([3]; both, human, plasma, sc, 50 ug, plasma half-life, overall, 50 μg s.c., six patients, mean ± SD): 3.44 h
- AUC ([3]; human, plasma, sc, 50 ug, Patient 1, Child's grade A, 50 μg s.c.): 10.5 ng·h/mL
- AUC ([3]; human, plasma, sc, 50 ug, Patient 2, Child's grade A, 50 μg s.c.): 17.2 ng·h/mL
- AUC ([3]; human, plasma, sc, 50 ug, Patient 3, Child's grade A, 50 μg s.c.): 16.6 ng·h/mL
- AUC ([3]; human, plasma, sc, 50 ug, Patient 4, Child's grade B, 50 μg s.c.): 18.1 ng·h/mL
- AUC ([3]; human, plasma, sc, 50 ug, Patient 5, Child's grade B, 50 μg s.c.): 18.5 ng·h/mL
- AUC ([3]; human, plasma, sc, 50 ug, Patient 6, Child's grade C, 50 μg s.c.): 23.8 ng·h/mL
- Cmax ([3]; human, plasma, sc, Patient 1, Child's grade A, 50 μg s.c.): 2.59 ng/mL
- Cmax ([3]; human, plasma, sc, Patient 2, Child's grade A, 50 μg s.c.): 2.2 ng/mL
- Cmax ([3]; human, plasma, sc, Patient 3, Child's grade A, 50 μg s.c.): 2.09 ng/mL
- Cmax ([3]; human, plasma, sc, Patient 4, Child's grade B, 50 μg s.c.): 2.94 ng/mL
- Cmax ([3]; human, plasma, sc, Patient 5, Child's grade B, 50 μg s.c.): 3.28 ng/mL
- Cmax ([3]; human, plasma, sc, Patient 6, Child's grade C, 50 μg s.c.): 3.51 ng/mL
- half-life ([3]; human, plasma, sc, 50 ug, t1/2, Patient 1, Child's grade A, 50 μg s.c.): 2.4 h
- half-life ([3]; human, plasma, sc, 50 ug, t1/2, Patient 2, Child's grade A, 50 μg s.c.): 2.76 h
- half-life ([3]; human, plasma, sc, 50 ug, t1/2, Patient 3, Child's grade A, 50 μg s.c.): 2.56 h
- half-life ([3]; human, plasma, sc, 50 ug, t1/2, Patient 4, Child's grade B, 50 μg s.c.): 4.03 h
- half-life ([3]; human, plasma, sc, 50 ug, t1/2, Patient 5, Child's grade B, 50 μg s.c.): 4.04 h
- half-life ([3]; human, plasma, sc, 50 ug, t1/2, Patient 6, Child's grade C, 50 μg s.c.): 4.89 h

Source: publication PMC2423925, “Pharmacokinetics of Octreotide in Patients With Cirrhosis and Portal Hypertension; Relationship Between the Plasma Levels of the Analogue and the Magnitude and Duration of the Reduction in Corrected Wedged Hepatic Venous Pressure” (HPB Surgery, 1998)
